Experimental data as given in paper PMC7684578, “Isopedopeptins A–H: Cationic Cyclic Lipodepsipeptides from Pedobacter cryoconitis UP508 Targeting WHO Top-Priority Carbapenem-Resistant Bacteria” (ACS Chemical Biology, 2020).
Read-outs that look alike come from different tables or passages of the source. Starred links: 1 amine or outer side, 2 acyl side, 3 side chain; linkers in the order of their positions; H or OH if unused. Positions of bridges follow the written chain, without caps; N, C: chain ends. Non-standard residues stand in square brackets, D forms with d. Residues, ends and D or L forms follow the SMILES beside them. X4 = CC(C)CCC=CCCC[C@H](CC(=O)[*:1])O[*:2]; X6 = CC(C)CCCCC=CC[C@H](CC(=O)[*:1])O[*:2]; X5 = CC(C)CCCCCCC[C@H](CC(=O)[*:1])O[*:2]; X3 = CC(C)CCCCC[C@H](CC(=O)[*:1])O[*:2]; X7 = CCCCCCC=CC[C@H](CC(=O)[*:1])O[*:2]; X2 = CCCCCCC[C@H](CC(=O)[*:1])O[*:2]; Val(3-OH) = CC(C)(O)[C@H](N)C(=O)O; X1 = C/C=C(/N[*:1])C(=O)[*:2]; Dab = NCC[C@H](N)C(=O)O; Dap = NC[C@H](N)C(=O)O

Test system: HepG2 cells
Experiment: In vitro cytotoxicity, fluorometric microculture cytotoxicity assay
Assay type: cell-based
Conditions: Homo sapiens, HepG2 liver, 72 h
Protocol: 10^8 CFU/mL) with turbidity assessed using a Sensititre Nephelometer (Trek Diagnostics Systems Ltd, UK). 50 µL of this bacterial suspension was transferred to 10 mL of MHII broth to give a final bacterial concentration ≅ 5 × 10^5 CFU/mL (acceptable range 3 – 7 × 10^5 CFU/mL). 50 µL of bacterial suspension was pipetted into each well (except the medium control well, where 50 µL MHII was pipetted). Final volume in each well was 100 µL. Plates were covered and incubated without shaking for 18-20 h at 35 °C ± 2 °C. MIC was read visually, as complete inhibition of growth by the unaided eye, using the medium-only wells as the control. Each compound was assayed at least in duplicate.
Additionally, the MIC for compound 2 against clinical carbapenem-resistant strains of A. baumannii […]
determined at the Public Health Agency of Sweden (according to EUCAST recommendations).
In vitro Cytotoxicity Determination. In vitro cytotoxicity was determined by a fluorometric microculture cytotoxicity assay,7 based on hydrolysis of fluorescein diacetate to fluorescein by cells with intact plasma membranes. In short, HepG2 cells (hepatocellular carcinoma cells, ATCC), in Eagle's Minimum Essential Medium (ATCC) supplemented with 10 % fetal bovine serum, penicillin/streptomycin (100 U/100 µg/mL) and 2 mM L-glutamine, were seeded in 384-well assay plates at a density of 1000 cells/well. The cells were incubated over night at 37°C and compounds in 10 mM DMSO were added, to obtain final concentrations 64 µM – 0.25 µM in two-fold dilutions.
After incubation for 72 h at 37°C, the cells were pelleted and washed. Fluorescein diacetate was added (1 µL, 0.5 mg/mL) and the fluorescence [485 nm(exc)/530 nm(em.)] was measured after 50 min at 37°C. Bortezomib (2 µM) was used as positive control and dose response testing of doxorubicin (top concentration 2 µM) was performed repeatedly to follow assay performance over time. Cytotoxicity was assessed after 72 h with cell survival presented as survival index (SI, %) defined as fluorescence in test wells in percent of control cultures with blank values subtracted.
Criteria for a successful assay include a signal-to-noise ratio in control cultures >10, CV <30% and a 7 Lindhagen, E., Nygren, P., and Larsson, R. (2008) The fluorometric microculture cytotoxicity assay. Nat. […]
positive control (Bortezomib) SI of <5%. The half maximal inhibitory concentration (IC50) was determined from log concentration-effect curves using non-linear regression analysis.
Frequency of resistance (FoR). For the determination of the FoR, the MIC of compound 2 was first evaluated on solid MH-agar medium prepared in 35 mm diameter plates. Each plate contained 4 mL agar with the appropriate amount of compound. Bacterial cultures were grown and prepared as described for the MIC assay. 13 µL of bacterial culture diluted to 0.5 MacFarland was inoculated into 1 mL 0.9% NaCl resulting in ~2 × 10^6 CFU/mL. 5 µL of this bacterial suspension was spotted onto the surface of each agar plate (~10^4 CFU/spot). Plates were sealed and incubated at 37°C for 18–20 hours. Agar MIC was recorded according to CLSI guidelines as the lowest concentration of […]
faint haze caused by the inoculum. Then 9 cm plates were prepared with 25 mL MHII agar medium containing 4 × or 8 × solid MIC concentrations of test compounds and seeded with 100 µL of a bacterial preparation, concentrated by centrifugation from overnight cultures and resuspended in 0.9% NaCl, corresponding to 108 CFU and 109 CFU per plate, and spread on the agar using 4–5 glass beads of 4 mm diameter. Since CFU were evaluated using the McFarland turbidity standard, the exact CFU number plated was evaluated by plating of serial dilutions of each inoculum preparation on MHII agar plates. Plates were incubated at 37°C and colonies were counted at 24 h and 48 h post-plating. The frequencies of resistance were then calculated by counting the number of validated resistant colonies growing on antibiotic preparations divided by the evaluated number of CFU in the inoculum. […]

Row | SMILES | IC50 (read-out: IC50(μM) HepG2) | IC50 (read-out: IC50(μg/mL) HepG2)
1 | C/C=C1/NC(=O)[C@H](CCN)NC(=O)[C@H](CC(C)C)NC(=O)[C@H](CN)NC(=O)C[C@@H](CCCCCC(C)C)OC(=O)[C@H](CC(=O)O)NC(=O)[C@H](C(C)(C)O)NC(=O)[C@@H](Cc2ccccc2)NC(=O)[C@H](CN)NC(=O)[C@H]([C@@H](C)O)NC1=O [Compound 1, cyclo(3-hydroxy-9-methyldecanoyl-DAPA1-Leu-DABA-ABA-Thr-DAPA2-Phe-OHVal-Asp)] ([Dap]L[Dab][X1]T[Dap][dF][Val(3-OH)]D; linker N-C via X3) | 29 µM | 33 µg/mL
2 | C/C=C1/NC(=O)[C@H](CCN)NC(=O)[C@H](CC(C)C)NC(=O)[C@H](CN)NC(=O)C[C@@H](CCCCCCC)OC(=O)[C@H](CC(=O)O)NC(=O)[C@H](C(C)(C)O)NC(=O)[C@@H](Cc2ccccc2)NC(=O)[C@H](CN)NC(=O)[C@H]([C@@H](C)O)NC1=O [Compound 2, isopedopeptin B] ([Dap]L[Dab][X1]T[Dap][dF][Val(3-OH)]D; linker N-C via X2) | 50 µM | 56 µg/mL
3 | C/C=C1/NC(=O)[C@H](CCN)NC(=O)[C@H](CC(C)C)NC(=O)[C@H](CN)NC(=O)C[C@@H](CC=CCCCCCC)OC(=O)[C@H](CC(=O)O)NC(=O)[C@H](C(C)(C)O)NC(=O)[C@@H](Cc2ccccc2)NC(=O)[C@H](CN)NC(=O)[C@H]([C@@H](C)O)NC1=O [Compound 3, isopedopeptin C] ([Dap]L[Dab][X1]T[Dap][dF][Val(3-OH)]D; linker N-C via X7) | 29 µM | 33 µg/mL
4 | C/C=C1/NC(=O)[C@H](CCN)NC(=O)[C@H](CC(C)C)NC(=O)[C@H](CN)NC(=O)C[C@@H](CCCCCCC)OC(=O)[C@H](CC(=O)O)NC(=O)[C@H](C(C)C)NC(=O)[C@@H](Cc2ccccc2)NC(=O)[C@H](CN)NC(=O)[C@H]([C@@H](C)O)NC1=O [Compound 4, isopedopeptin D] ([Dap]L[Dab][X1]T[Dap][dF]VD; linker N-C via X2) | 9 µM | 10 µg/mL
5 | C/C=C1/NC(=O)[C@H](CCN)NC(=O)[C@H](CC(C)C)NC(=O)[C@H](CN)NC(=O)C[C@@H](CCCCCC(C)C)OC(=O)[C@H](CC(=O)O)NC(=O)[C@H](C(C)C)NC(=O)[C@@H](Cc2ccccc2)NC(=O)[C@H](CN)NC(=O)[C@H]([C@@H](C)O)NC1=O [Compound 5, Isopedopeptin E] ([Dap]L[Dab][X1]T[Dap][dF]VD; linker N-C via X3) | 13 µM | 14 µg/mL
6 | C/C=C1/NC(=O)[C@H](CCN)NC(=O)[C@H](CC(C)C)NC(=O)[C@H](CN)NC(=O)C[C@@H](CCCCCCCC(C)C)OC(=O)[C@H](CC(=O)O)NC(=O)[C@H](C(C)(C)O)NC(=O)[C@@H](Cc2ccccc2)NC(=O)[C@H](CN)NC(=O)[C@H]([C@@H](C)O)NC1=O [Compound 6, Isopedopeptin F] ([Dap]L[Dab][X1]T[Dap][dF][Val(3-OH)]D; linker N-C via X5) | 9 µM | 10 µg/mL
7 | C/C=C1/NC(=O)[C@H](CCN)NC(=O)[C@H](CC(C)C)NC(=O)[C@H](CN)NC(=O)C[C@@H](CCCC=CCCC(C)C)OC(=O)[C@H](CC(=O)O)NC(=O)[C@H](C(C)C)NC(=O)[C@@H](Cc2ccccc2)NC(=O)[C@H](CN)NC(=O)[C@H]([C@@H](C)O)NC1=O [Compound 7, Isopedopeptin G] ([Dap]L[Dab][X1]T[Dap][dF]VD; linker N-C via X4) | 11 µM | 13 µg/mL
8 | C/C=C1/NC(=O)[C@H](CCN)NC(=O)[C@H](CC(C)C)NC(=O)[C@H](CN)NC(=O)C[C@@H](CC=CCCCCC(C)C)OC(=O)[C@H](CC(=O)O)NC(=O)[C@H](C(C)C)NC(=O)[C@@H](Cc2ccccc2)NC(=O)[C@H](CN)NC(=O)[C@H]([C@@H](C)O)NC1=O [Compound 8, Isopedopeptin H] ([Dap]L[Dab][X1]T[Dap][dF]VD; linker N-C via X6) | 14 µM | 16 µg/mL
